The source of these data is ChEMBL document CHEMBL1201862, “PubChem BioAssay data set” (2004).

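Method: 48-hour compound exposure of cells in 96-well plates, five concentrations, linear interpolation of endpoints. Abbreviation: GI50, concentration required for 50% inhibition of growth.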 Activity calls are given as the source filed them. No stated cut-off is given here; in the data, active = GI50 up to about 1.1 µM and inactive = higher. A value given as a limit tells only on which side of the number the result lay.

Among the test systems are UACC-257; SK-MEL-2; DU-145; SR; SN12C; CCRF-CEM; NCI-H460; NCI-H226; LOX IMVI; COLO 205; TK-10; IGROV-1; SK-MEL-5; MCF7; SNB-19; NCI-H522; HCT-15; U-251; NCI-H23; PC-3.
Experiment in all cases: NCI tumour cell line growth inhibition, 48 h

Regarding `CSC(=O)/C=C1\SS/C(=C\C(=O)SC)S1`, the GI50 in the assay with UACC-257 was 3.06 µM (inactive); in the assay with SK-MEL-2 it was 2.15 µM (inactive); in the assay on DU-145, 10.5 µM (inactive); in the assay on SR, 1.96 µM (inactive); with SN12C it was 1.82 µM (inactive); in the assay on CCRF-CEM it was 1.88 µM (inactive). Also, the GI50 is 2.26 µM (inactive) in the assay with NCI-H460; 1.77 µM (inactive) in the assay on NCI-H226; 1.55 µM (inactive) in the assay with LOX IMVI; 6.31 µM (inactive) in the assay on COLO 205; 4.93 µM (inactive) in the assay on TK-10; 3.37 µM (inactive) in the assay with IGROV-1. The GI50 with SK-MEL-5 was 2.65 µM (inactive); in the assay with MCF7, 2.74 µM (inactive); with SNB-19, 6.92 µM (inactive); in the assay on NCI-H522 it was 2.39 µM (inactive); with HCT-15 it was 2.06 µM; with U-251, 2.14 µM (inactive). Moreover, the values for the GI50 in the assay on NCI-H23 and in the assay with PC-3 were 3.08 µM (inactive) and 3.09 µM (inactive), respectively.
Regarding `NC1CC(=O)c2c(I)sc(I)c21` (stereo not given), the GI50 in the assay on UACC-257 was 19.8 µM (inactive); in the assay on SK-MEL-2, 17.9 µM (inactive); in the assay with DU-145, 24 µM (inactive); in the assay with SR, 13.4 µM (inactive); with SN12C it was 27.3 µM (inactive); in the assay with CCRF-CEM it was 3.27 µM (inactive). For the same compound, the GI50 was 17.7 µM (inactive) with NCI-H460; 19.1 µM (inactive) with NCI-H226; 13.3 µM (inactive) in the assay on LOX IMVI; 14.9 µM (inactive) in the assay on COLO 205; 19 µM (inactive) in the assay on TK-10; 15.2 µM (inactive) in the assay on IGROV-1. Further, the GI50 in the assay on SK-MEL-5 was 27.6 µM (inactive); with MCF7 it was 25.4 µM (inactive); with SNB-19, 23.8 µM (inactive); with NCI-H522, 7.69 µM (inactive); in the assay with HCT-15, 9.31 µM; in the assay with U-251 it was 9.79 µM (inactive). Also, the GI50 in the assay on NCI-H23 is 17.1 µM (inactive); with PC-3, 18.7 µM (inactive).
For the compound `Clc1ccc(-c2ccc(-c3nnc(CCc4nnc(-c5ccc(-c6ccc(Cl)cc6)o5)o4)o3)o2)cc1`, the GI50 in the assay on UACC-257 was > 100 µM (inactive); in the assay on SK-MEL-2, 23.4 µM (inactive); with DU-145, > 100 µM (inactive); with SR, 0.276 µM (active); in the assay with SN12C it was > 100 µM (inactive); in the assay on CCRF-CEM it was 2.89 µM (inactive). For the same compound, the GI50 was > 100 µM (inactive) in the assay on NCI-H460; > 61.7 µM (inactive) in the assay with NCI-H226; > 100 µM (inactive) in the assay with LOX IMVI; > 100 µM (inactive) in the assay on COLO 205; 40.9 µM (inactive) in the assay on TK-10; > 71.9 µM (inactive) in the assay with IGROV-1. In addition, the GI50 in the assay on SK-MEL-5 is > 100 µM (inactive); with MCF7, > 61.4 µM (inactive); in the assay with SNB-19, > 100 µM (inactive); with NCI-H522 it was 24.8 µM (inactive); with HCT-15, greater than 100 µM; in the assay with U-251, 17.1 µM (inactive). In addition, the GI50 in the assay on NCI-H23 is > 60.5 µM (inactive); in the assay on PC-3, > 100 µM (inactive).
As to `CCN(C(=S)N[C@H](C(=O)N[C@@H](C)C(=O)OC)C(C)C)c1ccccc1`, the GI50 in the assay with UACC-257 was 44.7 µM (inactive); in the assay on SK-MEL-2 it was > 100 µM (inactive); in the assay on DU-145 it was > 100 µM (inactive); with SR, 18.9 µM (inactive); in the assay on SN12C it was 66.8 µM (inactive); with CCRF-CEM, 27.8 µM (inactive). Besides, the GI50 with NCI-H460 is 33.6 µM (inactive); in the assay on NCI-H226 it was > 100 µM (inactive); in the assay with LOX IMVI, 52.6 µM (inactive); with COLO 205 it was 59.6 µM (inactive); in the assay with TK-10, 88.5 µM (inactive); with IGROV-1, 25.8 µM (inactive). Moreover, the GI50 was 71.4 µM (inactive) in the assay on SK-MEL-5; 87.3 µM (inactive) in the assay on MCF7; > 100 µM (inactive) in the assay with SNB-19; 16.6 µM (inactive) with NCI-H522; 63.1 µM with HCT-15; > 100 µM (inactive) in the assay on U-251. Besides, the values for the GI50 in the assay on NCI-H23 and with PC-3 were > 100 µM (inactive) and 64.9 µM (inactive), respectively.
On to `Clc1ccc(C2C3COc4ccccc4C3=NN2c2ccccc2)cc1` (stereo not given), for which the GI50 in the assay on UACC-257 is > 100 µM (inactive); in the assay on SK-MEL-2 it was > 75.3 µM (inactive); in the assay with DU-145, > 80.5 µM (inactive); with SR it was 0.198 µM (active); in the assay on SN12C it was 43.6 µM (inactive); in the assay on CCRF-CEM, 2.38 µM (inactive). The GI50 with NCI-H460 was > 100 µM (inactive); with NCI-H226 it was 30 µM (inactive); in the assay with LOX IMVI, 7.19 µM (inactive); with COLO 205 it was > 100 µM (inactive); in the assay on TK-10, > 100 µM (inactive); in the assay with IGROV-1, > 69 µM (inactive). The GI50 with SK-MEL-5 is > 82.8 µM (inactive); in the assay on MCF7, 3.84 µM (inactive); in the assay on SNB-19, > 46.9 µM (inactive); in the assay with NCI-H522, 17.8 µM (inactive); in the assay on HCT-15, 17.9 µM; with U-251 it was 36.1 µM (inactive). Further, the GI50 was > 91.6 µM (inactive) with NCI-H23 and > 67.1 µM (inactive) in the assay with PC-3.
For `CCOP(=O)(OCC)/C(C#N)=C/c1[nH]cnc1C`, the GI50 with UACC-257, in the assay on SK-MEL-2, in the assay on DU-145, in the assay with SR, with SN12C and in the assay on CCRF-CEM was > 100 µM (inactive) each time. Besides, the GI50 in the assay on NCI-H460, in the assay on NCI-H226, in the assay with LOX IMVI, in the assay on COLO 205, in the assay with TK-10 and with IGROV-1 was > 100 µM (inactive) each time. For the same compound, the GI50 was > 100 µM (inactive) with SK-MEL-5; > 100 µM (inactive) in the assay with MCF7; > 100 µM (inactive) in the assay on SNB-19; > 100 µM (inactive) in the assay on NCI-H522; greater than 100 µM in the assay on HCT-15; > 100 µM (inactive) in the assay with U-251. Moreover, the GI50 with NCI-H23 and in the assay with PC-3 was > 100 µM (inactive) in each case.
For `Cc1[nH]c2ccccc2c1/C=N/c1ccc(/N=C/c2c(C)[nH]c3ccccc23)cc1`, the GI50 in the assay on UACC-257 is 67.3 µM (inactive); in the assay with SK-MEL-2 it was 23.9 µM (inactive); with DU-145 it was 37.4 µM (inactive); in the assay with SR, 19.2 µM (inactive); in the assay on SN12C, 61.2 µM (inactive); in the assay on CCRF-CEM it was 15.4 µM (inactive). Moreover, the GI50 was 41.2 µM (inactive) in the assay with NCI-H460; 14 µM (inactive) in the assay on NCI-H226; 19.1 µM (inactive) in the assay on LOX IMVI; 12.9 µM (inactive) in the assay on COLO 205; 90.4 µM (inactive) with TK-10; 49.9 µM (inactive) in the assay with IGROV-1. Moreover, the GI50 was 17.2 µM (inactive) in the assay on SK-MEL-5; 16.5 µM (inactive) with MCF7; 61.9 µM (inactive) with SNB-19; 17.5 µM (inactive) in the assay with NCI-H522; 32 µM in the assay with HCT-15; 29.6 µM (inactive) in the assay with U-251. The GI50 in the assay on NCI-H23 is 29.1 µM (inactive); in the assay with PC-3, 50.4 µM (inactive).
